The values below come from patent US7476670B2, “Purine derivatives, method for preparing, pharmaceutical compositions and novel use” (Aventis Pharma S.A., priority 2003, dated 2009).

Assay type in all cases: biochemical
One experiment concerns the target JNK3 kinase (Homo sapiens, UniProt P53779). Nature of the experiment: Assay for inhibition of JNK3 activity. The settings on record: fluorescence polarization, ATP 6 μM; read-out: IC50s expressed as micromolar. The protocol: The inhibition of the kinase activity is determined by fluorescence polarization, the JNK3 kinase phosphorylates a peptide detected by adding an anti-phosphopeptide antibody coupled to a fluorescent label.
The assay is carried out in a final volume of 30 μl; all the reagents are prepared in a buffer: • 50 mM HEPES pH 7.5 • 0.03% triton X100 • 10 mM MgCl2 • 5% Glycerol • 1 mM DTT 10 μl of the 10-times concentrated inhibitor are added to 5 μl of enzyme (40 ng final concentration), and 5 μl of incubation buffer containing 100 ng of substrate and 10 μl of ATP (6 μM final concentration) are added.
A general note: In fluorescence polarisation assays a small probe gives low polarisation when free and higher when bound to something large.

Another experiment has as its target PLK1 (Homo sapiens, UniProt P53350). Nature of the experiment: Assay for inhibition of PLK1 activity. The settings on record: [33P]ATP; read-out: IC50s expressed as micromolar. The protocol:
(§1) The inhibition of the kinase activity is determined by measuring the phosphorylation of its substrate peptide.
The assay is carried out in a final volume of 40 μl; all the reagents are prepared in a buffer: • 50 mM HEPES pH 7.5 • 0.03% triton X100 • 10 mM MgCl2 • 5% Glycerol • 1 mM DTT 10 μl of the 10-times concentrated inhibitor are added to 5 μl of enzyme (75 ng final concentration), and 5 μl of peptide (1 μM final concentration), then 2.5 μl of incubation buffer containing 40 μM ATP and 2.5 μl of radiolabeled ATP, [^33P]ATP (500 nCi), are added. After incubation for 15 minutes at ambient temperature, 10 μl of incubation buffer containing 192 nM of substrate. […] Reference method for broth dilution antifungal susceptibility testing of yeasts. Approved Standard M27-A. NCCLS, Villanova, Pa.); the minimum concentration with which a visible decrease is observed in the cloudiness of the cell growth (at least 80% compared to a control without product) is the Minimum Inhibitory Concentration (MIC) of the antifungal agent with respect to the strain tested.

The next experiment addresses CaCiv1 (Candida albicans, UniProt A0A1D8PH53). Nature of the experiment: Assay for inhibition of CIV-CDK (CIV1) activity. An excerpt:
1) Assay for Inhibition of CIV-CDK (CIV1) Activity
a) Preparation of the Reagents

Another experiment deals with GSK3beta (Homo sapiens, UniProt P49841). Nature of the experiment: Assay for inhibition of GSK3beta activity. The settings on record: [33P]ATP; read-out: IC50s expressed as micromolar. The protocol:
as §1
The assay is carried out in a final volume of 40 μl; all the reagents are prepared in a buffer: • 50 mM HEPES pH 7.5 • 0.03% triton X100 • 10 mM MgCl2 • 5% Glycerol • 1 mM DTT 10 μl of the 10-times concentrated inhibitor are added to 5 μl of enzyme (20 ng final concentration), and 5 μl of peptide (1 μM final concentration) then 2.5 μof incubation buffer containing 16 μM ATP and 2.5 μl of radiolabeled ATP, [^33P]ATP (50 nCi) are added. After incubation for 15 minutes at ambient temperature, 10 μl of incubation buffer containing 1 μM of substrate.

The target in experiment [1] is Cyclin Dependent kinase 2 (CDK2) (Homo sapiens, UniProt P24941). Nature of the experiment: Assay for inhibition of CDK2 activity. The settings on record: [33P]ATP, read-out: percentage inhibition at 20 μM. The protocol: The inhibition of the kinase activity of Cyclin Dependent kinase 2 (CDK2) is determined by measuring the phosphorylation of its substrate peptide.
The assay is carried out in a final volume of 50 μl.
The incubation buffer as follows:
• 50 mM Hepes/NaOH pH 7.5 • 10 mM MgCl2 • 1 mM DTT 5 μl of the 10-times concentrated inhibitor are added to 25 μl of incubation buffer containing 0.8 U/μL final concentration of the enzyme; 10 μL of incubation buffer containing 0.0025 mg/ml of peptide substrate are then added and, finally, 10 μL of incubation buffer containing 2 mM ATP and radiolabeled ATP, [^33P]ATP (0.25 μCi), are added. The reaction is stopped after incubation for 10 minutes at 37° C. • Results obtained expressed as percentage inhibition at 20 μM • Example 2 97% • Example 27 97% • Example 30 99% 4) Assay for Inhibition of CDK1 Activity

The test system of another experiment is Abl kinase. Nature of the experiment: Assay for inhibition of Abl activity. The settings on record: fluorescence polarization. The protocol: The inhibition of the kinase activity is determined by fluorescence polarization, the Abl kinase phosphorylates a peptide detected by adding an anti-phosphopeptide antibody coupled to a fluorescent label.
The assay is carried out in a final volume of 50 μl; all the reagents are prepared in a buffer: • 20 mM Hepes/NaOH pH 7.5 • 5 mM MgCl2 • 100 μM Na2VO4 • 1 mM DTT • 100 μM EDTA/NaOH • 0.01% Brij35 5 μl of the 10-times concentrated inhibitor are added to 25 μl of enzyme (1000 U/ml final concentration), (Calbiochem ref 102555). After incubation for 5 minutes at ambient temperature, 10 μL of PolyGT (400 ng/ml final concentration) and 10 μL of ATP (5 μM final concentration) are added. The detection is carried out after incubation for 15 minutes at 30° C. • Results obtained expressed as percentage inhibition at 20 μM • Example 24 100% • Example 2 100% • Example 32 100% 6) Assay for Inhibition of ZAP Kinase Activity

Another experiment concerns the target T1, SRC kinase (Homo sapiens, UniProt P12931).
T1 construct: purchased Upstate Biotechnology 14-117
Nature of the experiment: Assay for inhibition of SRC kinase activity. The settings on record: fluorescence polarization, read-out: percentage inhibition at 20 μM. The protocol: 2) Assay for Inhibition of SRC Kinase Activity
The inhibition is determined by fluorescence polarization, the […] kinase phosphorylates a peptide detected by adding an anti-phosphopeptide antibody coupled to a fluorescent label.
The assay is carried out in a final volume of 50 μl; all the reagents are prepared in a buffer: • 25 mM HEPES/NaOH pH 7.6 • 5 mM MgCl2 • 2 mM MnCl2 • 50 μM Na2VO4 5 μl of the 10-times concentrated inhibitor are added to 25 μl of enzyme (12 U/ml final concentration), (Upstate Biotechnology ref 14-117). After incubation for 5 minutes at ambient temperature, 10 μl of PolyGluTyr 4/1 (150 ng/ml final concentration) and 10 μl of ATP (5 μM final concentration) are added. The detection is carried out after incubation for 20 minutes at ambient temperature. • Results obtained expressed as percentage inhibition at 20 μM • Example 8 98% • Example 15 99% • Example 20 99% • Example 24 99% • Example 27 95% • Example 30 99% • Example 32 100% • Example 38 95% 3) Assay for Inhibition of CDK2 Activity

A further experiment addresses T2, ZAP kinase (Homo sapiens, UniProt P43403).
T2 construct: purchased Panvera P2782
T2 sequence (P43403 1-619): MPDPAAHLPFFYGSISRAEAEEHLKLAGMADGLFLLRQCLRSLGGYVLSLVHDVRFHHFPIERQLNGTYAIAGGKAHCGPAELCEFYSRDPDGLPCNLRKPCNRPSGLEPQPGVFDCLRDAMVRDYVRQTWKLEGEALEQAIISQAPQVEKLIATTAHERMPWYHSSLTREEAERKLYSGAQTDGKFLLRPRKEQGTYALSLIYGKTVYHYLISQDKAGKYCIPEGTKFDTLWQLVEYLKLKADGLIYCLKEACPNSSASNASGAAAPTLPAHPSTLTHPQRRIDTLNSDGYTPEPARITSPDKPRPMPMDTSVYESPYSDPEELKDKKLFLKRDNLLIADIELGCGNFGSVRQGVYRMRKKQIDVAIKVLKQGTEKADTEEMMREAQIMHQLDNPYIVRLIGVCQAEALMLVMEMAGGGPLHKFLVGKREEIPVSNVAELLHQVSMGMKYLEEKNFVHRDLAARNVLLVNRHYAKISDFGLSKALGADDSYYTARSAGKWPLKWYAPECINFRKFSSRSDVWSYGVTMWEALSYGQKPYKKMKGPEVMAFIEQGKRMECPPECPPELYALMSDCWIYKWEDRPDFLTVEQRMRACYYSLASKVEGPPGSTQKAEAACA
Nature of the experiment: Assay for inhibition of ZAP kinase activity. The settings on record: fluorescence polarization, read-out: percentage inhibition at 20 μM. The protocol:
The inhibition of the kinase activity is determined by fluorescence polarization, the ZAP kinase phosphorylates a peptide detected by adding an anti-phosphopeptide antibody coupled to a fluorescent label.
The assay is carried out in a final volume of 50 μl; all the reagents are prepared in a buffer: • 20 mM Tris/HCl pH 7.7 • 7 mM MnCl2 • 50 μM Na2VO4 5 μl of the 10-times concentrated inhibitor are added to 25 μl of enzyme (0.7 μg/ml final concentration) (Panvera ref P2782). After incubation for 5 minutes at ambient temperature, 10 μl of PolyGT (300 ng/ml final concentration) and 10 μl of ATP (0.25 μM final concentration) are added. The detection is carried out after incubation for 15 minutes at ambient temperature. • Results obtained expressed as percentage inhibition at 20 μM • Example 8 98% • Example 20 95% • Example 24 96% 7) Assay for Inhibition of Casein Kinase II Activity

[2] abbreviates: CaCiv1 with Cdk2 substrate, [33P]ATP, 30 min ambient temperature, read-out: IC50 as micromolar.

pIC50: −log10 of the molar value. Where a name gives a salt, the structure may show the parent alone. Read-outs that look alike come from different tables or passages of the source.

Chain of CaCiv1 (A0A1D8PH53 entry or part of it): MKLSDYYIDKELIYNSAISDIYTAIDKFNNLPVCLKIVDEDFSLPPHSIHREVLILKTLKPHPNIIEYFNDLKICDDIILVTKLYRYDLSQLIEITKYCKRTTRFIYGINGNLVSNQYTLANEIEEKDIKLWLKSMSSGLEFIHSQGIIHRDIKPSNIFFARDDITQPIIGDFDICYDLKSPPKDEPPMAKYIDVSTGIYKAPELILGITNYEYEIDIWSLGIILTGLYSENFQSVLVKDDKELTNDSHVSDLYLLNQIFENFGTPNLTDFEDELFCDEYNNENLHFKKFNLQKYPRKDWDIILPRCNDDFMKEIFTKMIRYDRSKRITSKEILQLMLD
Chain of PLK1 (P53350 whole entry, species assumed): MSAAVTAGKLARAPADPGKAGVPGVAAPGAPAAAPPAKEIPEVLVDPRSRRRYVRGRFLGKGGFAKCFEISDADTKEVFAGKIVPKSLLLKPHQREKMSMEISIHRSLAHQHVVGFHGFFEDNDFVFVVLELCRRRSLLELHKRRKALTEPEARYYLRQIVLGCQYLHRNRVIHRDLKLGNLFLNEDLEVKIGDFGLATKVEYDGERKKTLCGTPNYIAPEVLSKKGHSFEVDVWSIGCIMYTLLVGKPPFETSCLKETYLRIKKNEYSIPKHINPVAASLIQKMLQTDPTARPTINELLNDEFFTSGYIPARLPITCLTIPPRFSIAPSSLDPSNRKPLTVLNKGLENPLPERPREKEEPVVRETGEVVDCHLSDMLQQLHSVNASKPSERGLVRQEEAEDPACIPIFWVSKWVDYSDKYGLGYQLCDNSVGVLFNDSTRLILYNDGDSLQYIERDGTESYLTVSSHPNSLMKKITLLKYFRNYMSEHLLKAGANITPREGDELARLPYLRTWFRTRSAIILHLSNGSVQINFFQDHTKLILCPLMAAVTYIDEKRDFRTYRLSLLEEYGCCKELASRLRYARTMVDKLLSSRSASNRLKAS
Chain of JNK3 kinase (P53779 whole entry): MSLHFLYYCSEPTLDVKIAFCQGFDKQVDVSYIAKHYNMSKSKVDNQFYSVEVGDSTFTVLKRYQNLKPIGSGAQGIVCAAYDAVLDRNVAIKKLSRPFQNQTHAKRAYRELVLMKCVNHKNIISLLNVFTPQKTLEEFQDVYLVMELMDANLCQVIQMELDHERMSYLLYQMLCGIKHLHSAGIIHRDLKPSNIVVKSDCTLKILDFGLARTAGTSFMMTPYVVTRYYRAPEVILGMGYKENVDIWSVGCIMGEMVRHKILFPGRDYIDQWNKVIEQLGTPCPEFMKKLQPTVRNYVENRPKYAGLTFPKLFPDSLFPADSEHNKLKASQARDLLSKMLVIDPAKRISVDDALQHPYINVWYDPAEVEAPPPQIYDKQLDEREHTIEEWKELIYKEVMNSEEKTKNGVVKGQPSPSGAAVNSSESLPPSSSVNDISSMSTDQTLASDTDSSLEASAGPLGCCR
Chain of GSK3beta (P49841 whole entry, species assumed): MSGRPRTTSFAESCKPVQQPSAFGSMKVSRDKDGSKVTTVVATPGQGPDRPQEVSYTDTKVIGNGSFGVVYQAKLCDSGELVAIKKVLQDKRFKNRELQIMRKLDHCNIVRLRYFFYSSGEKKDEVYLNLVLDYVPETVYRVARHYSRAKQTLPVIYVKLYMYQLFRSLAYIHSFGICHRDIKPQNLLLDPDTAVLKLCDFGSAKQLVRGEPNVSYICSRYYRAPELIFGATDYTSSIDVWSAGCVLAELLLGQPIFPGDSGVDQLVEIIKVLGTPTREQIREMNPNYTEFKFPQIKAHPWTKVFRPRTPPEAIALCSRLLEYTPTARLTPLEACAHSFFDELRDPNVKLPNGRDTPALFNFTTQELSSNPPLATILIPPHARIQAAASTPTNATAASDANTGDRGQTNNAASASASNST
T1 sequence (P12931 whole entry): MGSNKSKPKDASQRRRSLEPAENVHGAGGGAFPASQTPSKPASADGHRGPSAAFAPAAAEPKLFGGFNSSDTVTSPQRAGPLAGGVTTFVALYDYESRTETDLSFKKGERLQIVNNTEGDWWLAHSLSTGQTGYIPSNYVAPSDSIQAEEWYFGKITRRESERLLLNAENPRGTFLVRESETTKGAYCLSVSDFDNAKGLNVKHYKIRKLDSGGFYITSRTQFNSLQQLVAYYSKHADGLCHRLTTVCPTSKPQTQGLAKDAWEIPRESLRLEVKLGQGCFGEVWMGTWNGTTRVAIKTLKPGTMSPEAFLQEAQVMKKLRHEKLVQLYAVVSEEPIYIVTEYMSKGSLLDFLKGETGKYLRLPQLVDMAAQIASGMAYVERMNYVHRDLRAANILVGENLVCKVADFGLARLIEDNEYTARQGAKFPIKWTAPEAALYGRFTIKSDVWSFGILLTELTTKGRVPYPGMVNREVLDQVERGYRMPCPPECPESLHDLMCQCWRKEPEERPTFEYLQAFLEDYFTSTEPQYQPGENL

Consider “Trans-N-[6-(5,6-dichloro-2,3-dihydro-1H-indol-1-yl)-9H-purin-2-yl]-1,4-cyclohexanediamine dihydrochloride [Example 1]”, for which the results for the pIC50 on JNK3 kinase, at PLK1 and on CaCiv1 (setting [2]) were 6.54, 6.68 and 6.10, respectively.

As to `CC1Cc2ccccc2N1c1nc(N[C@H]2CC[C@H](N)CC2)nc2[nH]cnc12` (stereo partly drawn) [Example 26, dihydrochloride], the results for the pIC50 on JNK3 kinase and at GSK3beta were 6.51 and 5.89, respectively.

Regarding `OCC(CO)Nc1nc(-n2cnc3ccccc32)c2nc[nH]c2n1` [Example 18, 2-[[6-(1H-benzimidazol-1-yl)-9H-purin-2-yl]amino]-1,3-propanediol], the pIC50 is 6.80 on PLK1 and 5.41 on CaCiv1 (setting [2]).

As for `Cl.Cl.N[C@H]1CC[C@H](Nc2nc(-n3cnc4ccccc43)c3nc[nH]c3n2)CC1` [Example 2, Trans-N-[6-(1H-benzimidazol-1-yl)-9H-purin-2-yl]-1,4-cyclohexanediamine dihydrochloride], in experiment [1], the inhibition (commonly the percentage by which the read-out fell short of the control) at 20 µM amounted to 97%. Also, the pIC50 at CaCiv1 is 6.30; on GSK3beta, 6.22. Further, the “percentage inhibition at 20 μM” value in the experiment on Abl kinase came to 100%.

Turning to `O[C@H]1CC[C@H](Nc2nc(-n3cnc4ccccc43)c3nc[nH]c3n2)CC1` [Example 24, Trans-4-[[6-(1H-benzimidazol-1-yl)-9H-purin-2-yl]amino]cyclohexanol], the pIC50 on CaCiv1 (setting [2]) is 6.41. The “percentage inhibition at 20 μM” value with Abl kinase amounted to 100%. Also, the inhibition at 20 µM on SRC kinase came to 99%; on ZAP kinase it was 96%.
